Converted amounts (≈) assume the structure as drawn.

As a reminder, the MIC is the smallest concentration in the dilution series that meets the test's criterion for growth inhibition. The low end stands for greater potency, the high end for weaker potency.

Type in all cases: functional
For one experiment, the system named is Aspergillus fumigatus. The experiment is described as follows: Antifungal activity against Aspergillus fumigatus ATCC 204305 by broth dilution susceptibility test.
In a further experiment the test system is Candida tropicalis. Put plainly: Antifungal activity against Candida tropicalis ATCC 200955 by broth dilution susceptibility test. (In general: In broth dilution the organism is exposed to a series of concentrations in liquid medium.)
A further experiment concerns Pichia kudriavzevii. The experiment is described as follows: Antifungal activity against Candida krusei LSPQ 0309 by broth dilution susceptibility test.
Another experiment concerns Cryptococcus neoformans. The experiment is described as follows: Antifungal activity against Cryptococcus neoformans ATCC 32045 by broth dilution susceptibility test.
The test system of another experiment is Candida albicans. Put plainly: Antifungal activity against Candida albicans ATCC 10231 by broth dilution susceptibility test.
The subject of another experiment is Saccharomyces cerevisiae. The experiment is described as follows: Antifungal activity against Saccharomyces cerevisiae ATCC 9763 by broth dilution susceptibility test.
The subject of a further experiment is Aspergillus flavus. Put plainly: Antifungal activity against Aspergillus flavus ATCC 204304 by broth dilution susceptibility test.
The next experiment has as its system Clavispora lusitaniae. Put plainly: Antifungal activity against Candida lusitaniae ATCC 200953 by broth dilution susceptibility test.
In another experiment the test system is Nakaseomyces glabratus. The experiment is described as follows: Antifungal activity against Candida glabrata ATCC 90030 by broth dilution susceptibility test.

In the case of `CC(/C=C/CC/C=C/C=C/C=C/C=C/C(=O)NC1=C(O)CCC1=O)C(O)C(C)C(O)/C=C/C=C/C=C/C=C/C=C/CC(O[C@@H]1O[C@@H](C)[C@H](O)[C@@H](O)[C@H]1O)C(C)C(=O)CC(O)CC(O)CC(O)/C=C/CC(O)CC(O)CC(O)CC(O)/C=C/CC(O)CC(O)CCCN` (stereo in doubt), the MIC was determined as 16 µg/mL (≈ 12.3 µM) against Aspergillus fumigatus; 4 µg/mL (≈ 3.08 µM) against Candida tropicalis; 4 µg/mL (≈ 3.08 µM) against Pichia kudriavzevii; 4 µg/mL (≈ 3.08 µM) in the experiment with Cryptococcus neoformans; 4 µg/mL (≈ 3.08 µM) in the experiment on Candida albicans; 4 µg/mL (≈ 3.08 µM) in the experiment with Saccharomyces cerevisiae. Further, the values for the MIC in the experiment on Aspergillus flavus, with Clavispora lusitaniae and in the experiment on Nakaseomyces glabratus were no less than 8 µg/mL, 4 µg/mL (≈ 3.08 µM) and 4 µg/mL (≈ 3.08 µM), respectively.
Turning to `C[C@@H]1[C@H](O)[C@@H](C)/C=C/C=C/C=C/C=C/C=C/C=C/C=C/[C@H](O[C@@H]2O[C@H](C)[C@@H](O)[C@H](N)[C@@H]2O)C[C@@H]2O[C@](O)(C[C@@H](O)C[C@@H](O)[C@H](O)CC[C@@H](O)C[C@@H](O)CC(=O)O[C@H]1C)C[C@H](O)[C@H]2C(=O)O` [AMPHOTERICIN B], the MIC came to 2 µg/mL (≈ 2.16 µM) against Aspergillus fumigatus; 2 µg/mL (≈ 2.16 µM) against Candida tropicalis; 1 µg/mL (≈ 1.08 µM) against Candida albicans; 1 µg/mL (≈ 1.08 µM) in the experiment on Saccharomyces cerevisiae; 4 µg/mL (≈ 4.33 µM) with Aspergillus flavus; 1 µg/mL (≈ 1.08 µM) against Clavispora lusitaniae. Moreover, it took 1 µg/mL (≈ 1.08 µM) to inhibit growth with Nakaseomyces glabratus (MIC).

Values taken from ChEMBL document CHEMBL1158725, “Microbial genomics as a guide to drug discovery and structural elucidation: ECO-02301, a novel antifungal agent, as an example” (2005).
